# Reference: patent publication US20220125051A1, “PRE-HARVEST DESICCATION METHOD” (SYNGENTA CROP PROTECTION AG, priority 2019, published 2022)
# Several values for one entry are separate records, joined by “and”; a condition that tells them apart may be missing. Identical values can stand only once. Like-named read-outs stand apart in the source and are kept apart here.
# Tests used:
# Format in all cases: in vivo
# Lolium perenne (LOLPE) [1] = assay: Post-emergence efficacy, Method B; conditions: read-out: Control of weed species after post-emergence application, LOLPE
# Description: (§1) An “instant formulation”, known as the IF50, containing 50 g/L of the “technical” (i.e. unformulated) active ingredient was prepared by dissolving the active ingredient in a mixture of organic solvents and emulsifier, details of which are provided in the table. This IF50 was then mixed with a small, variable amount of acetone to aid dissolution, before addition of an aqueous solution of 1% v/v ammonium sulphate+1% v/v Empicol ESC70 (Sodium lauryl ether sulphate) adjuvant, as the aqueous diluent, to form an aqueous spray solution which contains a predetermined concentration of the active ingredient (which varies depending on the application rate of the active ingredient to the plants).
# (§2) This aqueous spray solution was then sprayed onto the plants, after about 12 days' cultivation. The plants were grown from seeds sown in standard soil, placed in a glasshouse under controlled conditions (at 24/18° C. or 20/16° C., day/night; 16 hours light; 65% humidity). After spray application the plants were then grown on in a glasshouse under the same conditions and watered twice daily. […] the test was evaluated (100=total damage to plant; 0=no damage to plant).
# (§3) Ipomoea hederacea (IPOHE), Euphorbia heterophylla (EPHHL), Chenopodium album (CHEAL), Amaranthus retroflexus (AMARE), Lolium perenne (LOLPE), Digitaria sanguinalis (DIGSA), Eleusine indica (ELEIN), Echinochloa crus-galli (ECHCG), Setaria faberi (SETFA)
# Setaria faberi (SETFA) [2] = assay: Post-emergence efficacy, Method B; conditions: read-out: Control of weed species after post-emergence application, SETFA
# Description: as §1, §2, §3
# [3] = system: Amaranthus retroflexus (AMARE); assay: Post-emergence efficacy, Method B; conditions: read-out: Control of weed species after post-emergence application, AMARE
# Description: as §1, §2, §3
# [4] = system: Ipomoea hederacea (IPOHE); assay: Post-emergence efficacy, Method B; conditions: read-out: Control of weed species after post-emergence application, IPOHE
# Description: as §1, §2, §3
# [5] = system: Digitaria sanguinalis (DIGSA); assay: Post-emergence efficacy, Method B; conditions: read-out: Control of weed species after post-emergence application, DIGSA
# Description: as §1, §2, §3
# [6] = system: Echinochloa crus-galli (ECHCG); assay: Post-emergence efficacy, Method B; conditions: read-out: Control of weed species after post-emergence application, ECHCG
# Description: as §1, §2, §3
# [7] = system: Chenopodium album (CHEAL); assay: Post-emergence efficacy, Method B; conditions: read-out: Control of weed species after post-emergence application, CHEAL
# Description: as §1, §2, §3
# [8] = system: Euphorbia heterophylla (EPHHL); assay: Post-emergence efficacy, Method B; conditions: read-out: Control of weed species after post-emergence application, EPHHL
# Description: as §1, §2, §3
# Eleusine indica (ELEIN) [9] = assay: Post-emergence efficacy, Method B; conditions: read-out: Control of weed species after post-emergence application, ELEIN
# Description: as §1, §2, §3
# [10] = system: Solanum turberosum (SOLTU); assay: Pre-harvest desiccation of crop plants; conditions: Table E, evaluated after 7 and 14 days (which not stated), 100=total damage to plant, 0=no damage
# Description: (§4) Seeds of a variety of test species were sown in standard loam based soil in pots. After cultivation from between 21 and 28 days (post-emergence) under controlled conditions in a glasshouse (at 24/16° C., day/night; 14 hours light; 65% humidity) for warm climate species and (at 20/16° C. day/night; 15 hours light; 65% humidity) for cool climate species.
# (§5) The plants were sprayed with an aqueous spray solution derived from dissolving the technical active ingredient formula in a small amount of acetone and a special solvent and emulsifier mixture referred to as IF50 (11.12% Emulsogen EL360 TM+44.44% N-methylpyrrolidone+44.44% Dowanol DPM glycol ether), to create a 50 g/I solution which was then diluted to required concentration using a solution of 1% Empicol ESC70 (Sodium lauryl ether sulphate)+1% ammonium sulphate in water as diluent.
# (§6) The delivery of the aqueous spray solution was via a laboratory track sprayer which delivered the aqueous spray composition at a rate of 200 litres per hectare, using a flat fan nozzle (Teejet 11002VS) and an application volume of 200 litre/ha (at 2 bar).
# (§7) The test plants were then grown in a glasshouse under controlled conditions (at 24/16° C., day/night; 14 hours light; 65% humidity) for warm climate species and (at 20/16° C. day/night; 15 hours light; 65% humidity) for cool climate species and watered twice daily. After 7 and 14 days the test was evaluated (100=total damage to plant; 0=no damage to plant).
# (§8) A value of n/t indicates not tested.
# (§9) Glycine Max (GLXMA), Solanum turberosum (SOLTU), Gossypium hirsutum (GOSHI), Brassica napus (BRSNN), Helianthus annus (HELAN)
# Brassica napus (BRSNN) = assay: Pre-harvest desiccation of crop plants; conditions: evaluated after 7 and 14 days (which not stated), 100=total damage to plant, 0=no damage; for Post-emergence dessication efficacy, BRSNN: Table E; for Post emergence dessication efficacy, BRSNN: Table F
# Description: as §4, §5, §6, §7, §8, §9
# [11] = system: Gossypium hirsutum (GOSHI); assay: Pre-harvest desiccation of crop plants; conditions: Table E, evaluated after 7 and 14 days (which not stated), 100=total damage to plant, 0=no damage
# Description: as §4, §5, §6, §7, §8, §9
# Glycine Max (GLXMA) = assay: Pre-harvest desiccation of crop plants; conditions: evaluated after 7 and 14 days (which not stated), 100=total damage to plant, 0=no damage; for Post-emergence dessication efficacy, GLXMA: Table E; for Post emergence dessication efficacy, GLXMA: Table F
# Description: as §4, §5, §6, §7, §8, §9
# Helianthus annus (HELAN) = assay: Pre-harvest desiccation of crop plants; conditions: Table F, evaluated after 7 and 14 days (which not stated), 100=total damage to plant, 0=no damage
# Description: as §4, §5, §6, §7, §8, §9
# Lolium perenne (LOLPE) [12] = assay: Post-emergence efficacy, Method A; conditions: Lolium perenne, post-emergence, 312 h, Application Rate 500 g/Ha; evaluated after 13 days; Method A; read-out: Control of weed species after post-emergence application, LOLPE (100=total damage to plant; 0=no damage to plant)
# In short: (§10)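 Post-emergence spray on 14-day-old glasshouse plants (24/16 °C day/night, 14 h photoperiod, 65% humidity). Test material was taken up in acetone and IF50 emulsifier mix, then diluted with sodium lauryl ether sulphate (0.25% or 1%) plus 1% ammonium sulphate. Damage was rated 13 days later, 100 = total.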
# Setaria faberi (SETFA) [13] = assay: Post-emergence efficacy, Method A; conditions: Setaria faberi, post-emergence, 312 h; Application Rate 500 g/Ha; evaluated after 13 days; Method A; read-out: Control of weed species after post-emergence application, SETFA (100=total damage to plant; 0=no damage to plant)
# In short: as §10
# [14] = system: Ipomoea hederacea (IPOHE); assay: Post-emergence efficacy, Method A; conditions: Ipomoea hederacea, post-emergence, 312 h, Application Rate 500 g/Ha; evaluated after 13 days; Method A; read-out: Control of weed species after post-emergence application, IPOHE (100=total damage to plant; 0=no damage to plant)
# In short: as §10
# [15] = system: Amaranthus palmeri (AMAPA); assay: Post-emergence efficacy, Method A; conditions: Amaranthus palmeri, post-emergence, 312 h; Application Rate 500 g/Ha; evaluated after 13 days; Method A; read-out: Control of weed species after post-emergence application, AMAPA (100=total damage to plant; 0=no damage to plant)
# In short: as §10
# [16] = system: Digitaria sanguinalis (DIGSA); assay: Post-emergence efficacy, Method A; conditions: Digitaria sanguinalis, post-emergence, 312 h; Application Rate 500 g/Ha; evaluated after 13 days; Method A; read-out: Control of weed species after post-emergence application, DIGSA (100=total damage to plant; 0=no damage to plant)
# In short: as §10
# [17] = system: Echinochloa crus-galli (ECHCG); assay: Post-emergence efficacy, Method A; conditions: Echinochloa crus-galli, post-emergence, 312 h; Application Rate 500 g/Ha; evaluated after 13 days; Method A; read-out: Control of weed species after post-emergence application, ECHCG (100=total damage to plant; 0=no damage to plant)
# In short: as §10
# [18] = system: Chenopodium album (CHEAL); assay: Post-emergence efficacy, Method A; conditions: Chenopodium album, post-emergence, 312 h; Application Rate 500 g/Ha; evaluated after 13 days; Method A; read-out: Control of weed species after post-emergence application, CHEAL (100=total damage to plant; 0=no damage to plant)
# In short: as §10
# [19] = system: Euphorbia heterophylla (EPHHL); assay: Post-emergence efficacy, Method A; conditions: Euphorbia heterophylla, post-emergence, 312 h; Application Rate 500 g/Ha; evaluated after 13 days; Method A; read-out: Control of weed species after post-emergence application, EPHHL (100=total damage to plant; 0=no damage to plant)
# In short: as §10
# Eleusine indica (ELEIN) [20] = assay: Post-emergence efficacy, Method A; conditions: Eleusine indica, post-emergence, 312 h; Application Rate 500 g/Ha; evaluated after 13 days; Method A; read-out: Control of weed species after post-emergence application, ELEIN (100=total damage to plant; 0=no damage to plant)
# In short: as §10
# [21] = Method B, 1000 g/Ha, 100=total damage to plant, 0=no damage
smiles,measurement,setting,value
O=C(O)CC[n+]1ccc(-c2ccncn2)cn1.[Cl-] [Compound A28],pest or weed control at 1000 g/ha,Lolium perenne (LOLPE) [1],70%
same,pest or weed control at 1000 g/ha,Setaria faberi (SETFA) [2],40%
same,pest or weed control at 1000 g/ha,[3],100%
same,pest or weed control at 1000 g/ha,[4],100%
same,pest or weed control at 1000 g/ha,[5],100%
same,pest or weed control at 1000 g/ha,[6],100%
same,pest or weed control at 1000 g/ha,[7],90%
same,pest or weed control at 1000 g/ha,[8],100%
same,pest or weed control at 1000 g/ha,Eleusine indica (ELEIN) [9],100%
same,"Post-emergence dessication efficacy, SOLTU",[10]; 150 g/Ha,100
same,"Post-emergence dessication efficacy, SOLTU",[10]; 300 g/Ha,100
same,"Post-emergence dessication efficacy, SOLTU",[10]; 600 g/Ha,100
same,"Post-emergence dessication efficacy, BRSNN",Brassica napus (BRSNN); 150 g/Ha,97
same,"Post-emergence dessication efficacy, BRSNN",Brassica napus (BRSNN); 300 g/Ha,100
same,"Post-emergence dessication efficacy, BRSNN",Brassica napus (BRSNN); 600 g/Ha,100
same,"Post-emergence dessication efficacy, GOSHI",[11]; 150 g/Ha,100
same,"Post-emergence dessication efficacy, GOSHI",[11]; 300 g/Ha,100
same,"Post-emergence dessication efficacy, GOSHI",[11]; 600 g/Ha,100
same,"Post-emergence dessication efficacy, GLXMA",Glycine Max (GLXMA); 150 g/Ha,93
same,"Post-emergence dessication efficacy, GLXMA",Glycine Max (GLXMA); 300 g/Ha,99
same,"Post-emergence dessication efficacy, GLXMA",Glycine Max (GLXMA); 600 g/Ha,99
"O=C(O)CC[n+]1ccc(-c2cccnn2)cn1.[Cl-] [Compound A138, 3-(4-pyridazin-3-ylpyridazin-1-ium-1-yl)propanoic acid chloride]",pest or weed control at 1000 g/ha,Lolium perenne (LOLPE) [1],100%
same,pest or weed control at 1000 g/ha,Setaria faberi (SETFA) [2],100%
same,pest or weed control at 1000 g/ha,[3],100%
same,pest or weed control at 1000 g/ha,[4],40%
same,pest or weed control at 1000 g/ha,[5],100%
same,pest or weed control at 1000 g/ha,[6],100%
same,pest or weed control at 1000 g/ha,[7],100%
same,pest or weed control at 1000 g/ha,[8],100%
same,pest or weed control at 1000 g/ha,Eleusine indica (ELEIN) [9],100%
same,"Post emergence dessication efficacy, HELAN",Helianthus annus (HELAN); 50 g/Ha,100
same,"Post emergence dessication efficacy, HELAN",Helianthus annus (HELAN); 150 g/Ha,100
same,"Post emergence dessication efficacy, HELAN",Helianthus annus (HELAN); 600 g/Ha,100
same,"Post emergence dessication efficacy, BRSNN",Brassica napus (BRSNN); 150 g/Ha,63 and 98
same,"Post emergence dessication efficacy, BRSNN",Brassica napus (BRSNN); 600 g/Ha,96 and 100
same,"Post emergence dessication efficacy, GLXMA",Glycine Max (GLXMA); 50 g/Ha,57 and 37
same,"Post emergence dessication efficacy, GLXMA",Glycine Max (GLXMA); 150 g/Ha,67 and 72
same,"Post emergence dessication efficacy, GLXMA",Glycine Max (GLXMA); 600 g/Ha,82 and 90
O=C([O-])CCC[n+]1ccc(-c2ncccn2)cn1 [Compound A220],pest or weed control at 1000 g/ha,Lolium perenne (LOLPE) [1]; [21],90%
same,pest or weed control at 1000 g/ha,Setaria faberi (SETFA) [2]; [21],30%
same,pest or weed control at 1000 g/ha,[3]; [21],100%
same,pest or weed control at 1000 g/ha,[4]; [21],30%
same,pest or weed control at 1000 g/ha,[5]; [21],100%
same,pest or weed control at 1000 g/ha,[6]; [21],90%
same,pest or weed control at 1000 g/ha,[7]; [21],90%
same,pest or weed control at 1000 g/ha,[8]; [21],100%
same,pest or weed control at 1000 g/ha,Eleusine indica (ELEIN) [9]; [21],100%
same,pest or weed control at 500 g/ha,Lolium perenne (LOLPE) [12],60%
same,pest or weed control at 500 g/ha,Setaria faberi (SETFA) [13],60%
same,pest or weed control at 500 g/ha,[14],80%
same,pest or weed control at 500 g/ha,[15],100%
same,pest or weed control at 500 g/ha,[16],90%
same,pest or weed control at 500 g/ha,[17],40%
same,pest or weed control at 500 g/ha,[18],100%
same,pest or weed control at 500 g/ha,[19],90%
same,pest or weed control at 500 g/ha,Eleusine indica (ELEIN) [20],20%
